Here are results for one compound from ChEMBL document CHEMBL1132019, “RNA-aminoglycoside antibiotic interactions: fluorescence detection of binding and conformational change” (Bioorg Med Chem Lett, 1999).

Test [1] is described as follows: Compound was evaluated for the apparent first-order binding constant (K) at a concentration of 90 uM to 5 mM.
The nature of test [2]: Compound was tested for inhibition against hammer head ribozyme complex (HH16-F).
Test [3] can be described thus: Compound was evaluated for the apparent second-order binding constant (K) at a concentration of 90 uM to 5 mM.

The Ki is a measure of affinity in units of concentration, obtained from inhibition or displacement. A higher Ki goes with a looser hold on the target. In the case of `NC[C@@H]1O[C@H](O[C@H]2[C@@H](O)[C@H](O[C@@H]3[C@@H](O)[C@H](N)C[C@H](N)[C@H]3O[C@H]3O[C@H](CN)[C@@H](O)[C@H](O)[C@H]3N)O[C@@H]2CO)[C@H](N)[C@@H](O)[C@@H]1O` [FRAMYCETIN], the K is 4 M⁻¹ in test [1] and 8 M-2 in test [3]. Besides, the Ki in test [2] came to 13.5 µM.
